Read-outs that look alike come from different tables or passages of the source.
Columns and labels:
[1] = system: Myzus persicae; test: Myzus persicae - spray test (Chinese cabbage leaf discs); format: in vivo; details: 500 g/ha, after 6 days; for pest or weed control at 500 g/ha: Myzus persicae, foliar, 144 h, read-out: efficacy in % (aphids killed)
Experimental: Myzus persicae—Spray Test
Solvent: 78 parts by weight of acetone • • 1.5 parts by weight of dimethylformamide
Emulsifier: alkylaryl polyglycol ether
To produce a suitable preparation of active compound, 1 part by weight of active compound is dissolved using the specified parts by weight of solvent and made up with water containing an emulsi fier concentration of 1000 ppm until the desired concentration is attained. To produce further test concentrations, the formulation is diluted with emulsifier-containing water.
Discs of Chinese cabbage leaves (Brassica pekinensis) infested by all stages of the green peach aphid (Myzus persicae) are sprayed with an active compound formulation of the desired concentration.
After 6 days, the efficacy in % is determined. 100% means that all the aphids have been killed; 0% means that no aphids have been killed.

[2] = log P determination by HPLC on reversed-phase (C18) columns, OECD Guideline 117; format: physicochemical; details: for chromatographic logP: reversed-phase (C18) HPLC column
Experimental: The log P values were determined in accordance with OECD Guideline 117 (EC Directive 92/69/EEC) by HPLC (high-performance liquid chromatography) using reversed-phase (RP) columns (C18), by the following methods:
[a] The LC-MS determination in the acidic range was carried out at pH 2.7 with 0.1% aqueous formic acid and acetonitrile (contains 0.1% formic acid) as mobile phases; linear gradient from 10% acetonitrile to 95% acetonitrile.
[b] LC-MS determination in the neutral range was carried out at pH 7.8 with 0.001 molar aqueous ammonium hydrogencarbonate solution and acetonitrile as mobile phases; linear gradient from 10% acetonitrile to 95% acetonitrile.

[3] = system: Myzus persicae; test: Myzus persicae - oral test; format: in vivo; details: after 5 days; for efficacy in % (aphids killed): 20 ppm
Experimental: Solvent: 100 parts by weight of acetone
Subsequently, the plates are sealed with parafilm, which a mixed population of green peach aphids (Myzus persicae) within a second microtitre plate is able to puncture and imbibe the solution through it.
After 5 days, the efficacy in % is determined. 100% means that all the aphids have been killed; 0% means that no aphids have been killed.

[4] = HPLC, acidic range pH 2.7, 0.1% aqueous formic acid/acetonitrile
[5] = HPLC, neutral range pH 7.8, 0.001 molar aqueous ammonium hydrogencarbonate/acetonitrile
[6] = pH 2.7, HPLC, acidic range pH 2.7, 0.1% aqueous formic acid/acetonitrile, read-out: logp-acidic
[7] = pH 7.8, HPLC, neutral range pH 7.8, 0.001 molar aqueous ammonium hydrogencarbonate/acetonitrile, read-out: logp-neutral

Row | Compound | logp-acidic ([2]; pH 2.7) | logp-neutral ([2]; pH 7.8) | chromatographic logP [2, 7] | efficacy in % (aphids killed) [1] [%] | efficacy in % (aphids killed) [3] [%] | further results
1 | CN(C(=O)c1cnc(-c2ccoc2)n1C)c1cccnc1 [Example 15] | – | – | – | 90 | 100 | logp-acidic [2, 4]: 0.29
2 | CN(C(=O)c1cnc(-c2cc(C#N)cc(C(F)(F)F)c2)n1C)c1cccnc1 [Example 61] | – | – | – | 100 | 100 | logp-acidic [2, 4]: 1.85; logp-neutral [2, 5]: 1.96
3 | CN(C(=O)c1cnc(-c2cnc(N3CCOCC3)c(C#N)c2)n1C)c1cccnc1 [Example 66] | 1.16 | 1.45 | – | 90 | 100 | –
4 | COC(=O)c1cccc2c(-c3ncc(C(=O)N(C)c4cccnc4)n3C)cccc12 [Example 28] | 1.56 | 1.95 | – | 90 | 100 | –
5 | CCOC(=O)COc1cc(-c2ncc(C(=O)N(C)c3cccnc3)n2C)cc(F)c1F [Example 42] | 1.80 | 2.02 | – | – | – | –
6 | CN(C(=O)c1cnc(Br)n1C)c1cccnc1 [XI] | – | – | 0.93 | – | – | chromatographic logP [2, 6]: 0.65
7 | COC(=O)c1cnc(-c2cc(SCC(F)(F)F)c(C)cc2F)n1C [XVIII, methyl 2-{2-fluoro-4-methyl-5-[(2,2,2-trifluoroethyl)sulphanyl]phenyl}-1-methyl-1H-imidazole-5-carboxylate] | – | – | 3.19 | – | – | chromatographic logP [2, 6]: 3.09
8 | Cc1cc(F)c(B2OC(C)(C)C(C)(C)O2)cc1SCC(F)(F)F [XVI, 2-{2-fluoro-4-methyl-5-[(2,2,2-trifluoroethyl)sulphanyl]phenyl}-4,4,5,5-tetramethyl-1,3,2-dioxaborolane] | – | – | 4.8 | – | – | chromatographic logP [2, 6]: 4.89
9 | C#Cc1ncc(C(=O)N(C)c2cccnc2)n1C [XIV, 2-ethynyl-N,1-dimethyl-N-(pyridin-3-yl)-1H-imidazole-5-carboxamide] | – | – | 0.87 | – | – | chromatographic logP [2, 6]: 0.53
10 | COc1ccc(-c2ncc(C(=O)N(C)c3cccnc3)n2C)cc1[N+](=O)[O-] [Example 96] | – | – | – | – | – | logp-acidic [2, 4]: 1.2; logp-neutral [2, 5]: 1.53
11 | CCN(C(=O)c1cncn1C)c1cccnc1 [VII-ethyl] | – | – | 0.78 | – | – | –
12 | Cc1cc(F)c(-c2ncc(C(=O)O)n2C)cc1SCC(F)(F)F [XIX] | – | – | 0.95 | – | – | chromatographic logP [2, 6]: 1.83
13 | CN(C(=O)c1cnc(-c2cccc(COC3CCOCC3)c2)n1C)c1cccnc1 [Example 20] | – | – | 1.57 | – | – | pest or weed control at 500 g/ha [1]: 90%; chromatographic logP [2, 6]: 1.11
14 | CN(C(=O)c1cnc(-c2ccncc2)n1C)c1cccnc1 [Example 33] | – | – | – | – | – | pest or weed control at 500 g/ha [1]: 100%; pest or weed control at 20 ppm ([3]; Myzus persicae, 120 h, read-out: efficacy in % (aphids killed)): 100%

Continued, in another order:

Row | logp-acidic ([2]; pH 2.7) | logp-neutral ([2]; pH 7.8) | chromatographic logP [2, 7] | Compound | efficacy in % (aphids killed) [1] [%] | efficacy in % (aphids killed) [3] [%] | further results
15 | 0.8 | 1.54 | – | COc1ccc(-c2ncc(C(=O)N(C)c3cccnc3)n2C)c(OC)c1 [Example 84] | 100 | 100 | –
16 | 1 | 1.26 | – | COc1cc(-c2ncc(C(=O)N(C)c3cccnc3)n2C)ccn1 [Example 94] | 90 | 100 | –
17 | 0.97 | 1.62 | – | CN(C(=O)c1cnc(-c2cccc3ccoc23)n1C)c1cccnc1 [Example 80] | 100 | 100 | –
18 | 1.14 | 1.59 | – | CSc1ccccc1-c1ncc(C(=O)N(C)c2cccnc2)n1C [Example 98] | – | 100 | –
19 | 0.9 | – | – | COc1ccc(OC)c(-c2ncc(C(=O)N(C)c3cccnc3)n2C)c1 [Example 85] | – | 100 | –
20 | 1.18 | 1.70 | – | CCOC(=O)COc1cccc(-c2ncc(C(=O)N(C)c3cccnc3)n2C)c1 [Example 41] | – | – | –
21 | 1.44 | – | – | CCOC(=O)COc1cc(-c2ncc(C(=O)N(C)c3cccnc3)n2C)ccc1F [Example 43] | – | – | –
